Reference: patent publication US4797417A, “Furanone derivatives, process for preparation thereof and use thereof” (Fujisawa Pharmaceutical Co., Ltd., priority 1982, dated 1989)

Target: T1, aldose reductase (Oryctolagus cuniculus, UniProt P15122)
T1 construct: The lenses were homogenized with 3 volumes of distilled water at 4° C; from tissue; host or cells: rabbit lens (homogenate, 10,000 G supernatant, dialysed)
Experiment: Aldose reductase-inhibiting activity, enzymatic assay (decrease in NADPH, D,L-glyceraldehyde substrate, rabbit lens enzyme solution)
Format: biochemical
Conditions: IC50 (M), concentration at which the aldose reductase activity is inhibited by 50%, pH 6.2, 35° C., 2 minutes
Protocol: (1) Enzymatic assay method:
The above reactants were mixed and reacted at 35° C. for 2 minutes and the decrease in amount of NADPH was measured with an Automatic Reaction Rate Analyzer Model LKB-8600 of LKB Producter A. B. The enzyme activity at achange in absorbance of 0.001 per minute was taken as unity.
(2) Method for preparing an enzyme solution
Rabbit eyes were enucleated and the lenses collected. The lenses were homogenized with 3 volumes of distilled water at 4° C. (All the subsequent procedures were also performed at 4° C.) and centrifuged at 10,000 G for 60 minutes. The supernatant was dialyzed against 2 liters of 0.05 M of saline solution and the interal fluid was used as the enzyme solution.

`COC1=C(c2cccc(C(F)(F)F)c2)C(CCC(=O)O)OC1=O` (stereo not drawn) [Example 20, 3-[4-Methoxy-5-oxo-3-(3-trifluoromethylphenyl)2,5-dihydro-2-furyl]propionicacid] showed an IC50 of 4.8e-07 M.

Same assay, conditions: concentration at which the aldose reductase activity is inhibited by 50%, pH 6.2, 35° C., 2 minutes, read-out: IC50

In order of falling IC50:
1. O=C(O)CCC1OC(=O)C(O)=C1c1ccccc1 (single isomer, unassigned) [Example 30-2, (d)-3-(4-hydroxy5-oxo-3-phenyl-2,5-dihydro-2-furyl)propionic acid]  2.5e-06 M
2. O=C(O)CCC1OC(=O)C=C1c1ccccc1 (stereo not drawn) [Example 29-8, 3-(2,5-dihydro5-oxo-3-phenyl-2-furyl)propionic acid]  5.4e-07 M
3. O=C(O)CCC1OC(=O)C(O)=C1c1ccccc1 (single isomer, unassigned) [Example 30-3, (l)-3-(4-hydroxy-5-oxo-3-phenyl-2,5-dihydro-2-furyl)propionic acid]  5.4e-07 M
4. CCOC(=O)CCC1OC(=O)C(OC)=C1c1ccccc1 (stereo not drawn) [Example 4, ethyl 3-(4-methoxy-5-oxo-3-phenyl-2,5-dihydro-2-furyl)propionate]  2.2e-07 M
5. COC1=C(c2ccccc2)C(CCC(=O)O)OC1=O (stereo not drawn) [Example 18, 3-(4-Methoxy-5-oxo-3-phenyl-2,5-dihydro-2-furyl)propionic acid]  2.2e-07 M
6. CCOC1=C(c2ccccc2)C(CCC(=O)O)OC1=O (stereo not drawn) [Example 22, 3-(4-ethoxy-5-oxo-3-phenyl2,5-dihydro-2-furyl)propionic acid]  2e-07 M
7. COC1=C(c2ccc(Cl)cc2)C(CCC(=O)O)OC1=O (stereo not drawn) [Example 19, 3-[3-(4-Chlorophenyl)-4-methoxy-5-oxo-2,5-dihydro-2-furyl]propionic acid]  1.5e-07 M
8. CCCCCOC1=C(c2ccccc2)C(CCC(=O)O)OC1=O (stereo not drawn) [Example 17, 3-(5-oxo-4-pentyloxy-3-phenyl2,5-dihydro-2-furyl)propionicacid]  5e-08 M
